# Test results taken from patent US20210332083A1, “Netrin-1 Compounds and Compositions Thereof for Treating Pulmonary Hypertension” (The Regents of the University of California, priority 2018, published 2021).
# Positions of bridges follow the written chain, without caps; N, C: chain ends. Non-standard residues stand in square brackets, D forms with d. No end group written: not given here. mini‑PEG = diethylene glycol
# Test system: hypoxia induced pulmonary hypertensive mice
# Test: Hemodynamic analysis (mPAP, RVSP by catheter) in hypoxia induced PH mice
# Format: in vivo, C57BL/6 mice
# Settings: for mPAP (mmHg) / RVSP (mmHg): Mean ± SEM; for % Improvement (reduction in pressure/increase), RVSP / % Improvement (reduction in pressure/increase), mPAP: vs hypoxia w/o treatment; for % Reduction RVSP / % Reduction mPAP: Table 3, (negative control mmHg-netrin-1 compound)/(negative control mmHg); for mean pulmonary arterial pressure (mPAP) / right ventricular systolic pressure (RVSP): mice, 10% oxygen 21 days, 15 ng/day s.c. mini-osmotic pump, mean±SEM; for mean pulmonary arterial pressure (mPAP): hypoxia 40.54±4.473, normoxia 19.41±1.281; for right ventricular systolic pressure (RVSP): hypoxia 41.94±3.287, normoxia 32.20±1.884
# Protocol: All animal experiments were approved by the Institutional Animal Care and Usage Committee at the University of California, Los Angeles (UCLA). […] groups of 9-12 weeks old male C57BL/6 mice (Charles River Laboratories, Wilmington, Mass.) were implanted using mini-osmotic pumps subcutaneously releasing the given netrin-1 compound (netrin-1, V1-9aa, V2-10aa, V3-11aa, V1P, V2P, V3P, V1S, V1T, V1D, V1C) at 15 ng/day, and the mice were housed under room air or 10% oxygen conditions in a normobaric chamber for 21 days. The hypoxic environment was maintained by continuous mixed gas flow (10% oxygen/90% nitrogen gas). The animals were fed and watered ad libitum, and cages were changed twice weekly. After the chamber was closed, the mixed gas was flushed to recover the hypoxic environment as quickly as possible. Animals were maintained at 20° C. with a 12:12-hour light-dark cycle. At the end of the treatment period, animals were anesthetized and hemodynamic analyses were performed by introducing 1.4 F catheter (Millar instruments, Houston, Tex.) into right ventricle and pulmonary artery. The right ventricular systolic blood pressure (RVSP) and the mean pulmonary arterial pressure (mPAP) were recorded using a Power Lab data acquisition system (ADInstruments Inc., CO).
# All animal experiments were approved by the Institutional Animal Care and Usage Committee at the University of California, Los Angeles (UCLA). Eleven groups of 9-12 weeks old male C57BL/6 mice (Charles River Laboratories, Wilmington, Mass.) were implanted using mini-osmotic pumps subcutaneously releasing Netrin-1 derived peptides and modified peptides at 15 ng/day (Netrin-1, V1, V2, V3, V1P, V2P, V3P, V1S, V1T, V1D and V1C), and the mice were housed under room air or 10% oxygen conditions in a normobaric chamber for 21 days. The hypoxic environment was maintained by continuous mixed gas flow (10% oxygen/5% CO2 balanced with nitrogen gas). The animals were fed and watered ad libitum, and cages were changed twice weekly. After the chamber was closed, the mixed gas was flushed to recover the hypoxic environment as quickly as possible. Animals were maintained at 20° C. with a 12:12-hour light-dark cycle.
# At the end of the treatment period, animals were anesthetized and hemodynamic analysis were performed by introducing 1.4 F catheter (Mikro-Tip® catheter-transducer; Model SPR-671, Millar instruments, Houston, Tex.) into both right and left ventricle and pulmonary artery. The right ventricular systolic blood pressure (RVSP), pulmonary arterial pressure (PAP), left ventricular systolic pressure (LVSP) and aortic pressure were recorded using a Power Lab data acquisition system (ADInstruments Inc., CO).
# [1] = Table 2, n = 4-6, hypoxia w/o treatment 40.54 ± 4.473, normal control 19.41 ± 1.281
# [2] = Table 2, n = 4-6, hypoxia w/o treatment 41.94 ± 3.281, normal control 32.20 ± 1.884
# [3] = Table 2, printed over hypoxia-induced increase 9.74
# [4] = Table 2, printed over hypoxia-induced increase 21.13
# [5] = Table 1, n = 4-5, hypoxia w/o treatment 38.98 ± 1.747, normal control 32.20 ± 1.884
# [6] = Table 1, n = 4-5, hypoxia w/o treatment 39.54 ± 5.341, normal control 19.41 ± 1.281
# [7] = Table 1, hypoxia-induced increase 6.78
# [8] = Table 1, hypoxia-induced increase 19.39
Substance,mPAP (mmHg) [1] [mmHg],RVSP (mmHg) [2] [mmHg],"reduction in pressure (of reduction in pressure/increase), RVSP [3]","reduction in pressure (of reduction in pressure/increase), mPAP [4]","% Improvement (reduction in pressure/increase), RVSP (Table 2) [%]","% Improvement (reduction in pressure/increase), mPAP (Table 2) [%]",% Reduction RVSP [%],% Reduction mPAP [%],mean pulmonary arterial pressure (mPAP) [mmHg],right ventricular systolic pressure (RVSP) [mmHg],RVSP (mmHg) [5] [mmHg],mPAP (mmHg) [6] [mmHg],"reduction in pressure (of reduction in pressure/increase), RVSP [7]","reduction in pressure (of reduction in pressure/increase), mPAP [8]","% Improvement (reduction in pressure/increase), RVSP (Table 1) [%]","% Improvement (reduction in pressure/increase), mPAP (Table 1) [%]",attenuation (inhibition) of RVSP increase (hypoxia-induced RVSP increase) [%]
(mini-PEG)-CDCRHNTAG ({mini‑PEG}-CDCRHNTAG; not fully specified (bridges); printed as (mini-PEG)-CDCRHNTAG; cysteine pairing not given here) [V1P],21.88 ± 3.020,30.95 ± 3.867,> 9.74,(18.66/21.13),100,88,26,46,21.88±3.020,30.95±3.876,,,,,,,
(mini-PEG)-CLNCRHNTAG ({mini‑PEG}-CLNCRHNTAG; cysteine pairing not given here) [V2P],27.39 ± 2.973,29.95 ± 1.661,> 9.74,(13.15/21.13),100,62,29,32,27.39±2.973,29.95±1.661,,,,,,,
(mini-PEG)-CPCKDGVTIGIT ({mini‑PEG}-CPCKDGVTIGIT; cysteine pairing not given here) [V3P],20.22 ± 1.304,29.27 ± 1.986,> 9.74,(20.32/21.13),100,96,30,50,20.22±1.304,29.27±1.986,,,,,,,
CDCRHNTAG [V1-9aa] (Peptide based on human Netrin-1 sequence) [304-312 aa of human netrin-1],,,,,,,19,40,23.83±5.149,31.50±3.321,31.50 ± 3.321,23.83 ± 5.149,(>6.78/6.78),(15.97/19.39),100,81,
CDCRHNTAG [V1C] (disulfide 1-3),17.76 ± 1.403,26.80 ± 3.051,> 9.74,(>21.32/21.13),100,100,36,56,17.76±1.403,26.80±3.051,,,,,,,
"CLNCRHNTAG (Peptide based on human Netrin-1 sequence) [V2-10aa, 368-377 aa]",,,,,,,15,35,25.74±3.788,33.10±1.044,33.10 ± 1.044,25.74 ± 3.788,(5.88/6.78),(13.8/19.39),87,71,91
"CPCKDGVTGIT (Peptide based on human Netrin-1 sequence) [V3-11aa, 423-433 aa]",,,,,,,20,26,29.35±3.635,31.23±1.773,31.23 ± 1.773,29.35 ± 3.635,(>6.78/6.78),(10.19/19.39),100,53,
SDCRHNTAG (Peptide based on human Netrin-1 sequence) [V1S],16.58 ± 1.608,23.62 ± 0.518,> 9.74,(>21.32/21.13),100,100,44,59,16.58±1.608,23.62±0.518,,,,,,,
TDCRHNTAG (Peptide based on human Netrin-1 sequence) [V1T],24.52 ± 2.686,29.03 ± 2.960,> 9.74,(16.02/21.13),100,76,31,40,24.52±2.686,29.03±2.960,,,,,,,
dCDCRHNTAdG ([dC]DCRHNTAG; cysteine pairing not given here) [V1D],22.89 ± 3.237,29.41 ± 3.876,> 9.74,(17.65/21.13),100,84,30,44,22.89±3.237,29.41±3.876,,,,,,,
